From PubChem BioAssay (NCI)
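Exposure lasted 48 hours, with cells grown in 96-well plates and compounds tested at five concentrations. TGI is the concentration that stops growth completely.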

Columns and labels:
Assay in all cases: NCI tumour cell line growth inhibition, 48 h
786-0 renal = tested on: 786-0 renal
TK-10 renal = tested on: TK-10 renal
BT-549 breast = tested on: BT-549 breast
OVCAR-8 ovarian = tested on: OVCAR-8 ovarian
CCRF-CEM leukemia = tested on: CCRF-CEM leukemia
SK-MEL-28 melanoma = tested on: SK-MEL-28 melanoma
SNB-19 CNS = tested on: SNB-19 CNS
DU-145 prostate = tested on: DU-145 prostate
HOP-92 NSCLC = tested on: HOP-92 NSCLC
HOP-18 NSCLC = tested on: HOP-18 NSCLC

SMILES | TGI (786-0 renal) [µM] | TGI (TK-10 renal) [µM] | TGI (BT-549 breast) [µM] | TGI (OVCAR-8 ovarian) [µM] | TGI (CCRF-CEM leukemia) [µM] | TGI (SK-MEL-28 melanoma) [µM] | TGI (SNB-19 CNS) [µM] | TGI (DU-145 prostate) [µM] | TGI (HOP-92 NSCLC) [µM] | TGI (HOP-18 NSCLC) [µM]
COc1cc(/C=C/C(=O)c2c(=O)o[nH][n+]2-c2ccccc2)ccc1[O-] | 4.94 | 10.5 | 7.9 | 8.09 | 3.52 | 8.85 | 17.4 | 5.72 | 7.39 | 
CC(=O)O[C@@H]1C[C@@]23C[C@@]24CC[C@H](OC2OCC(O)C(O)C2O)C(C)(C)[C@@H]4CC=C3[C@]2(C)C[C@@H]3OC4(C[C@@H](C)[C@@H]3[C@@]12C)OC(O)[C@@]1(C)O[C@@H]41 (stereo partly drawn) | 63.1 | > 100 | 97.3 | > 100 | 63.5 | > 100 | > 100 | > 100 | > 100 | 
CC(C)=CCC/C(C)=C/CC/C(C)=C/Cc1c(O)c2ccccc2oc1=O | > 100 | > 100 |  | > 100 | > 100 | > 100 | > 100 |  | > 100 | > 100
Cc1ccc(C(=O)N/N=C(\N=Nc2cccc(Cl)c2)c2ccc(N(CCC#N)CCC#N)cc2C)cc1 | > 100 | > 100 | > 100 | > 100 | > 100 | > 100 | > 100 | > 100 | > 100 | 
O=C1C=CC(=O)C(CNc2ccc(C(=O)OC34CC5CC(CC(C5)C3)C4)cc2)=C1 | 23 | 23.8 | 15.7 | 56 | > 20.4 | 17.8 | 27.8 | 47.6 | 13.7 | 
Nc1nc(-c2ccccc2N=NN2CCCC2)nc2ccccc12 | 4.77 | 14.5 | 24.1 | 3.77 | 19.1 | 25.2 | 16.5 | 16.5 | 21.3 | 
O=C1NC(=O)/C(=C/c2ccc(S(=O)(=O)N/N=C/c3ccc(Cl)cc3)cc2)N1 | > 100 | > 100 | > 100 | > 100 | > 100 | > 100 | > 100 | > 100 | > 100 | 
Cc1cc(=O)n2nc(SCc3ccccc3)sc2n1 | > 100 | > 100 | > 100 | > 100 | > 100 | > 100 | > 100 | > 100 | > 100 | 
CCCCc1cc2c(C)cc(=O)oc2c(O)c1O | 99.4 | > 100 | 33.6 | > 100 | 56.3 | > 100 | > 100 | > 100 | 59.6 | 
CN(C)/N=C/c1cn(C)c(=O)n(C)c1=O | > 100 | > 100 | > 100 | > 100 | > 100 | > 100 | > 100 | > 100 | > 100 | 
O=CC(O)C(O)C(O)C(O)C(=O)NCCCCCCCCCCCCNC(=O)C(O)C(O)C(O)C(O)C=O (stereo not drawn) | > 100 | > 100 | > 100 | > 100 | > 100 | > 100 | > 100 | > 100 | > 100 | 
